{"source": "patent US20260216250A1", "about": "“Compositions and Methods for Treating a Neurologic Disease Using Dopaminergic Neurons with Enhanced Anti-inflammatory Activity” (Kenai Therapeutics Inc., priority 2023, published 2026)", "key": {"rodent GSK3β homologs": {"tested_on": "rodent GSK3β homologs", "details": "cited from earlier work"}, "Ago": {"target": "Ago (Homo sapiens, UniProt Q9UKV8)", "sequence (Q9UKV8 whole entry)": "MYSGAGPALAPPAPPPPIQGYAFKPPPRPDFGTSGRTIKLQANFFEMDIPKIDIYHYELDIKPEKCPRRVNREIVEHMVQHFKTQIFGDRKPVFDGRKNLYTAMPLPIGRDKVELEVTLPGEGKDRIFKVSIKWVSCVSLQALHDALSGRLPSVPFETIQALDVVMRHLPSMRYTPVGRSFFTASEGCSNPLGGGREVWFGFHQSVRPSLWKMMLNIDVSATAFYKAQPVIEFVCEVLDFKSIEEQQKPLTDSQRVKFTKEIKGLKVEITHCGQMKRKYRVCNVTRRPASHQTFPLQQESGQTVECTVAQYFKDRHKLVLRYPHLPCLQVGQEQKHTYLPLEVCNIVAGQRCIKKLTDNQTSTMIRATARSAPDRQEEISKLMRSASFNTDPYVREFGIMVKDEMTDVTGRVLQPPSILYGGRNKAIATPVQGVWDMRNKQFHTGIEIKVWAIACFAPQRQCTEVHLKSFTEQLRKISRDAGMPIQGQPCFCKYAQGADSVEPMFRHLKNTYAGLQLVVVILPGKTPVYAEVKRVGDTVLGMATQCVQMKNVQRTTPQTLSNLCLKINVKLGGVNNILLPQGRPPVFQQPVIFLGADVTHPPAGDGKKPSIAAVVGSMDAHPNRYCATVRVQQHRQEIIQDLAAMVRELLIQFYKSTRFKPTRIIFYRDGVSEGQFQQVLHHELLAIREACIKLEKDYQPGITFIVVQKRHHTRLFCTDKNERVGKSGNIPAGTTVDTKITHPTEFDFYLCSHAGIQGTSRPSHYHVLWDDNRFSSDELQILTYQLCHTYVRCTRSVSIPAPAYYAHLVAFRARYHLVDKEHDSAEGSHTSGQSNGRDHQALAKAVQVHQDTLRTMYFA", "details": "cited from earlier work"}, "iPS cells": {"tested_on": "iPS cells", "experiment": "Differentiation of iPS cells into FOXA2+/LMX1+ cells or dopamine neurons", "type": "cell-based, human", "details": "increased concentrations, e.g. 2 μM as compared to 0.2 μM", "from_the_text": "Disclosed is an in vitro method for preparing a cell composition comprising modified human cells that express both forkhead box protein A2 (FOXA2) and LIM homeobox transcription factor 1 (LMX1) (FOXA2^+/LMX1^+ cells) comprising culturing modified human pluripotent cells in the presence of the following signaling modulators: (a) a single inhibitor of Small Mothers Against Decapentaplegic (SMAD) signaling, (b) at least one activator of Sonic hedgehog (SHH) signaling, and (c) at least one activator of wingless (Wnt) signaling; and culturing said cells in the presence of said modulators for a period of time sufficient to provide a cell composition comprising said FOXA2^+/LMX1^+ cells. In some preferred embodiments, the LMX1 is LIM homeobox transcription factor 1 alpha (LMX1A). In some embodiments, the inhibitor of SMAD signaling is a BMP inhibitor such as, […]., at a concentration of from about 0.2 μM to about 4 μM, more preferably greater than 0.2 μM to about 4 μM, about 1 μM, 2 μM, 3 μM, 4 μM, or any range derivable therein), dorsomorphin, DMH-1, or noggin. […] In some embodiments, the BMP inhibitor is LDN-193189. The SMAD signaling inhibitor may be a TGFβ inhibitor (a TGFβ signaling pathway inhibitor) such as, for example, SB431542 (e.g., SB431542 present at a concentration of about 5-100, 20-60, 30-50 μM, or about 40 μM). […]"}}}
{"molecule": "Cc1c[nH]c(-c2cnc(NCCNc3ccc(C#N)cn3)nc2-c2ccc(Cl)cc2Cl)n1", "note": "[CHIR99021, 6-(2-(4-(2,4-dichlorophenyl)-5-(4-methyl-1H-imidazol-2-yl)pyrimidin-2-ylamino)ethylamino) nicotinonitrile]", "values": [{"measurement": "IC50 values against rodent GSK3β homologs", "setting": "rodent GSK3β homologs", "result": "nanomolar"}]}
{"molecule": "UUAAUGCUAAUCGUGAUAGGGGUU [miR-155-5p]", "values": [{"measurement": "Ago binding affinity of 5′ terminal UMP relative to the CMP nucleotide on the 5′ terminus of the miR-155-3p strand", "setting": "Ago", "result": "approximately 20 times"}]}
{"molecule": "c1ccc2c(-c3cnn4cc(-c5ccc(N6CCNCC6)cc5)cnc34)ccnc2c1", "note": "[LDN-193189, 4-(6-(4-(piperazin-1-yl)phenyl)pyrazolo[1,5-a]pyrimidin-3-yl) quinoline]", "values": [{"measurement": "differentiation of iPS cells into FOXA2+/LMX1+ cells or dopamine neurons", "setting": "iPS cells", "result": "improved differentiation"}]}
